These results are taken from the OPERA property sets (Mansouri et al. 2018).

Peptide text beside a SMILES is read from it.

For `O=C(NCCO)C(F)(F)Cn1ccnc1[N+](=O)[O-]`, the lipophilicity (logP) was -0.52. The compound `O=C(CO)NCc1ccccc1` returned a logP of 0.55. As for `CCc1ccc2c(c1)C(=O)c1ccc(NC(C)=O)cc1S2(=O)=O`, the figure is 3.44; as for `Cc1cccc(OC(=O)c2ccc(N)cc2O)c1`, 3.64. The same measure for `Nc1ncc(Cc2ccccc2)c(N)n1`: 1.58; for `c1ccc(CN2CCOCC2)cc1`: 1.58; for `CC(=O)c1ccc(C(=O)O)cc1`: 1.61. On to `CCOc1ccccc1S(I)=C(N(C)C)N(C)C` (stereo not drawn), for which the logP is -0.06. In the case of `O=C1C=C(N2CCCC2)C(=O)c2ccccc21`, the logP was found to be 2.89. For the compound `O=[N+]([O-])C=Cc1cccc([N+](=O)[O-])c1`, the lipophilicity (logP) was 1.82. `O=C(O)COc1ccc(Cl)c(Cl)c1` gave a log partition coefficient (logP) of 2.81. `O=C(Nc1ncnc2c1ncn2[C@@H]1O[C@H](CO)[C@@H](O)[C@H]1O)c1ccccc1` returned a lipophilicity (logP) of -0.1. Regarding `CC(C)COC(=O)c1cc(O)c(O)c(O)c1`, the lipophilicity (logP) came out at 2.46.

As to `Cc1ncc([N+](=O)[O-])n1CCS(=O)(=O)C(C)C`, the log partition coefficient (logP) is 0.13.

Consider `c1ccc(Cn2ccnn2)cc1`, for which the logP came out at 1.27.

`CNC(=O)Oc1ccccc1C`: the logP is 1.46.

In turn, `CC(=O)c1cn(C)c2ccccc12` displayed a log partition coefficient (logP) of 1.95. Consider `BrC(Br)(Br)Br`, for which the lipophilicity (logP) turned out to be 3.42. Turning to `CON(C)C(=O)Nc1ccc(C=C(C#N)C#N)cc1`, the logP turned out to be 2.19. The same measure for `CCC(=O)OC1(C(=O)CCl)C(C)CC2C3CCC4=CC(=O)C=CC4(C)C3C(=O)CC21C` (stereo not drawn): 3.3. The same measure for `CN1CCCCC1`: 1.3. The same measure for `Cn1c(CO)cnc1[N+](=O)[O-]`: -0.35; for `COc1ccco1`: 1.44. For the compound `O=C(NN=Cc1ccoc1)Nc1ccccc1`, the lipophilicity (logP) came to 2.52. The same measure for `CCC(C)n1c(=O)[nH]c(C)c(Br)c1=O` (stereo not drawn): 2.11; for `CCCOC(N)=O`: 0.36.

With `CN(C)CC(CN1c2ccccc2Sc2ccccc21)N(C)C` (stereo not drawn), the log partition coefficient (logP) came out at 4.76.

Take `Clc1cc2oc3c(Cl)c(Cl)ccc3c2c(Cl)c1Cl`: the lipophilicity (logP) came out at 6.26.

Regarding `O=C(O)c1cccc(Cl)c1`, the logP worked out at 2.68. For `CN1CCCC1`, the lipophilicity (logP) came to 0.92. As for `CCC1(CCC(C)C)C(=O)NC(=S)NC1=O`, the figure is 2.98. As for `Nc1ccc2ncccc2c1`, the lipophilicity (logP) worked out at 1.28. As for `CCC(=O)c1ccccc1`, the figure is 2.19; as for `COc1cc([C@@H]2c3cc4c(cc3C(O[C@@H]3O[C@@H]5CO[C@@H](C)O[C@H]5[C@H](O)[C@H]3O)C3COC(=O)[C@@H]32)OCO4)cc(OC)c1O` (stereo partly drawn), 0.6. `CCn1nc2ccccc2n1` yielded a log partition coefficient (logP) of 2.1.

The compound `CCOC(=O)CC(SP(=S)(OC)OC)C(=O)OCC` (stereo not drawn) yielded a log partition coefficient (logP) of 2.36. In turn, `c1ccc2[nH]nnc2c1` returned a lipophilicity (logP) of 1.44.

Compound `O=C(O)Cc1ccccc1O` had a logP of 0.85.

In turn, `O=S(=O)(CF)Nc1ccccc1` had a lipophilicity (logP) of 1.35. `CCC(=O)c1ccccc1O` registered a logP of 2.54. `Oc1ccccc1Br` displayed a lipophilicity (logP) of 2.35.

The compound `O=NN(CC(F)(F)F)CC(F)(F)F` had a lipophilicity (logP) of 2.15. In turn, `Cc1ccc(COC(=O)N(C)C)cc1` came in with a logP of 2.63. Regarding `COc1cc(NC(=O)NC(=N)N)ccc1C#N`, the logP turned out to be 1.28. As for `CNN`, the log partition coefficient (logP) was -1.05. As for `CN1CCC=C1c1cccnc1`, the figure is 1.13; as for `OCC=CCO`, -0.81. With `CC(=O)N[C@@H](Cc1ccc(O)cc1)C(=O)N[C@@H](CC(C)C)C(N)=O` (Ac-Tyr-Leu-NH2), the log partition coefficient (logP) was 0.32.

For the compound `Cc1ccc(O)c(-n2nc3ccccc3n2)c1`, the logP worked out at 4.31. `Cc1ccc(O)c(O)c1` came in with a logP of 1.37.

`COC(=O)CCC(NC(=O)c1ccc(N(C)Cc2cnc3nc(N)nc(N)c3n2)cc1)C(=O)OC` (stereo not drawn) yielded a logP of 0.54. With `CN(C)N=Nc1ccc(C=CC(=O)O)cc1`, the logP was 2.66. `C=C(C)Cl` gave a log partition coefficient (logP) of 2.
